Test results published in ChEMBL document CHEMBL1128211, “3D-quantitative structure-activity relationships of human immunodeficiency virus type-1 proteinase inhibitors: comparative molecular field analysis of 2-heterosubstituted statine derivatives-implications for the design of novel inhibitors” (J Med Chem, 1995).
pKi: −log10 of the molar value.

Target: Human immunodeficiency virus type 1 protease (Human immunodeficiency virus 1, UniProt Q72874)
Experiment: Inhibitory activity was determined against HIV type 1 protease

pKi | Compound
7.84 | CC(C)(C)[C@H](NC(=O)OCc1ccccc1)C(=O)N[C@@H](Cc1ccccc1)[C@@H](O)[C@@H](NCc1ccccc1)C(=O)N[C@H]1c2ccccc2CC1O (stereo partly specified)
7.77 | CC(C)[C@H](NC(=O)OCc1ccccc1)C(=O)N[C@@H](CCc1ccccc1)[C@@H](O)[C@@H](NCc1ccc(Cl)cc1)C(=O)N[C@H](C(=O)NCc1nc2ccccc2[nH]1)C(C)C
7.87 | CC(C)[C@H](NC(=O)OCc1ccccc1)C(=O)N[C@@H](Cc1ccccc1)[C@@H](O)[C@@H](NCc1ccccc1)C(=O)N[C@H](C(=O)NCc1cccnc1)C(C)C
7.96 | CC(C)[C@H](NC(=O)[C@H](NCc1ccc(Cl)cc1)[C@H](O)[C@H](Cc1ccccc1)NC(=O)OC(C)(C)C)C(=O)NCc1nc2ccccc2[nH]1
8.12 | CC(C)[C@H](N)C(=O)C[C@@H](Cc1ccccc1)[C@@H](O)[C@H]1CCc2ccc(cc2)OCCOCCOCCCOCCNC(=O)[C@H](C(C)C)CC1=O
7.80 | CC(C)[C@H](NC(=O)[C@H](NCc1ccccc1)[C@H](O)[C@H](Cc1ccccc1)NC(=O)[C@@H](NC(=O)COc1ccccc1)C(C)(C)C)C(=O)NCc1ccccc1
5.64 | COc1ccc(CN[C@@H](C(=O)NCc2nc3ccccc3[nH]2)[C@H](O)[C@H](Cc2ccccc2)NC(=O)OC(C)(C)C)cc1
8.38 | COc1ccc(CN[C@@H](C(=O)N[C@H](C(=O)NCc2ccc(OC)cc2OC)C(C)C)[C@H](O)[C@H](Cc2ccccc2)NC(=O)[C@@H](NC(=O)OCc2ccccc2)C(C)C)cc1
8.28 | COc1ccc(CN[C@@H](C(=O)N[C@H](C(=O)NCc2nc3ccccc3[nH]2)C(C)C)[C@H](O)[C@H](Cc2ccccc2)NC(=O)[C@@H](NC(=O)CCc2ccc(C(P(=O)(O)OCc3ccccc3)P(=O)(O)OCc3ccccc3)cc2)C(C)(C)C)cc1 (stereo partly specified)
8.05 | COc1ccc(CN[C@@H](C(=O)N[C@H](C(=O)NCCc2nc3ccccc3[nH]2)C(C)C)[C@H](O)[C@H](Cc2ccccc2)NC(=O)[C@@H](NC(=O)OCc2ccccc2)C(C)C)cc1
7.57 | CC(C)[C@H](NC(=O)[C@H](NCc1ccccc1)[C@H](O)[C@H](Cc1ccccc1)NC(=O)[C@@H](NC(=O)c1nc2c(F)cccc2[nH]1)C(C)(C)C)C(=O)NCc1ccccc1
7.33 | COc1ccc(CN[C@@H](C(=O)NCCC(=O)NCc2nc3ccccc3[nH]2)[C@H](O)[C@H](Cc2ccccc2)NC(=O)[C@@H](NC(=O)OCc2ccccc2)C(C)C)cc1
8.02 | COc1cccc(CN[C@@H](C(=O)N[C@H](C(=O)NCc2ccccc2)C(C)C)[C@H](O)[C@H](Cc2ccccc2)NC(=O)[C@@H](NC(=O)OCc2ccccc2)C(C)C)c1
6.80 | CC(C)[C@H](NC(=O)[C@H](NCc1ccccc1)[C@H](O)[C@H](Cc1ccccc1)NC(=O)OC(C)(C)C)C(=O)NCc1ccccc1
8.37 | COc1ccc(CN[C@@H](C(=O)N[C@H](C(=O)NCc2nc3ccccc3[nH]2)C(C)C)[C@H](O)[C@H](Cc2ccccc2)NC(=O)[C@@H](NC(=O)CCc2ccc(O)c(I)c2)C(C)(C)C)cc1
7.80 | COc1ccc(CN[C@@H](C(=O)N[C@H](C(=O)Nc2ccc3ncsc3c2)C(C)C)[C@H](O)[C@H](Cc2ccccc2)NC(=O)[C@@H](NC(=O)OCc2ccccc2)C(C)C)cc1
7.64 | COc1ccc(CN[C@@H](C(=O)N[C@H]2c3ccccc3CC2O)[C@H](O)[C@H](Cc2ccccc2)NC(=O)[C@@H](NC(=O)c2cn3cccnc3n2)C(C)(C)C)cc1 (stereo partly specified)
8.16 | CC(C)[C@H](N)C(=O)C[C@@H](Cc1ccccc1)[C@@H](O)[C@H]1CCc2ccc(cc2)OCCOCCCOCCNC(=O)[C@H](C(C)C)CC1=O
7.85 | COc1ccc(CN[C@@H](C(=O)N[C@H](C(=O)NCCc2ccc(S(N)(=O)=O)cc2)C(C)C)[C@H](O)[C@H](Cc2ccccc2)NC(=O)[C@@H](NC(=O)OCc2ccccc2)C(C)C)cc1
7.98 | COc1ccc(CN[C@@H](C(=O)N[C@H](C(=O)Nc2nc3ccccc3s2)C(C)C)[C@H](O)[C@H](Cc2ccccc2)NC(=O)[C@@H](NC(=O)OCc2ccccc2)C(C)C)cc1
6.17 | CC(C)(C)OC(=O)N[C@@H](Cc1ccccc1)[C@@H](O)[C@@H](NCc1ccc(CNC(=O)CCc2nc3ccccc3[nH]2)cc1)C(=O)NCc1ccccc1
